# Results: PubChem BioAssay AID2060619 (Molecular Pharmacology Branch, DTP, NCI, 2025)
# Values joined by “and” are separate entries in the source; they are usually repeats but may differ in a detail not shown here. Identical values can stand only once.
# Test system: 323965-272-R-J2-PDC complex spheroid viability
# Experiment: Anticancer human tumor 323965-272-R-J2-PDC patient-derived pancreatic carcinoma cell line growth inhibition [CLK]
# Settings: for viability, T/C: stronger effect = lower value; for IC50: curve of compound
# From the text: A high-throughput screen of multi-cell type tumor spheroids was designed to identify active combinations of […] and targeted small molecules. Complex spheroids include a stromal component modeled by human endothelial cells (HUVEC) and fibroblasts modeled by human mesenchymal stem cells (MSCs). The concentration ranges selected for each drug and investigational agent were based upon clinically achievable concentrations if the clinical Cmax of the agent was known.
# Compounds. The drugs and investigational agents: cirtuvivint (SM08502; NSC835563), CC-671 (NSC850746), vemurafenib (NSC761431), tapotoclax (NSC804041), sotorasib (NSC818433), adagrasib (NSC831453), MRTX-1133 (NSC836407), BAY2416964 (NSC825713), copanlisib (NSC816437), inavolisib (NSC800729), abemaciclib (NSC768073), osimertinib (NSC779217), entinostat (NSC756642), eltanexor (KPT-8602, NSC794443), venetoclax (NSC766270), ceralasertib (NSC777638), bortezomib (NSC756655), olaparib (NSC753686), talazoparib (NSC767125), alisertib (NSC759677), peposertib (NSC802822), gemcitabine (NSC613327), 5-fluorouracil (NSC19893), SN-38 (NSC673596), oxaliplatin (NSC266046), paclitaxel (NSC125973), and doxorubicin (NSC123127), were obtained from the National Cancer Institute (NCI) Developmental Therapeutics Program Chemical Repository. The FDA-approved anticancer drug set is available from the Developmental Therapeutics Program at https://dtp.cancer.gov/organization/dscb/obtaining/available plates.htm. […] The stock solutions were prepared in dimethyl sulfoxide (DMSO, Sigma-Aldrich, St. Louis, MO, cat. D2650), except for the platinum complexes which were prepared in saline (Quality Biological, Gaithersburg, MD, cat. 114-055-101), at 800-fold the tested concentration and stored at -70 degrees C prior to their use. All drugs and investigational agents were tested over a range starting from a high concentration at or near the clinical Cmax and decreasing in half-log increments. If the clinical Cmax for an agent had not been determined, the highest concentration tested was 10 microM.
# Cell Culture. All cells were maintained in an incubator at 37 degrees C and 5% CO2 with 95% humidity. The PDC lines were cultured according to standard operating procedures established by the NCI PDMR. Briefly, all PDCs were thawed and cultured in Matrigel-coated flasks prepared with a working solution of 1X Ham's F-12 nutrient mix, without supplementation (Invitrogen, Waltham, MA, cat. 11765054), 100 U/mL penicillin-streptomycin (Invitrogen, cat. 15140122), and 2.5% Matrigel (Corning Inc., Corning, NY, cat. 354248) for the first three passages. The 947758-054-R-J2-PDC line was cultured in 6B/Colon 1A media, which includes advanced DMEM/F-12 (Thermo Fisher Scientific, cat. 12634028), 10 mM HEPES (Thermo Fisher Scientific, cat. 15630080), 1X GlutaMAX supplement (Thermo Fisher Scientific, cat. 35050061), 0.1 mg/mL primocin (InvivoGen, cat. ant-pm-2), 10% defined fetal bovine serum, heat inactivated (HyClone Laboratories Inc., cat. SH30070.03HI), 1.25 mM N-Acetyl-L-cysteine (Sigma-Aldrich, cat. A9165), 10 mM nicotinamide (Sigma-Aldrich, cat. N0636), 1X B-27 supplement (Thermo Fisher Scientific, cat. 17504044), 1X N-2 supplement (Thermo Fisher Scientific, cat. 17502048), and 10 microM Y-27632 dihydrochloride (Tocris Bioscience, cat. 1254). The 876862-298-R-J1-PDC was cultured in 6E media, which includes all 6B/Colon 1A media components plus 50% L-WRN conditioned media (ATCC, cat. CRL-3276), 50 ng/mL recombinant human EGF recombinant protein (hEGF; Thermo Fisher Scientific, cat. PHG0311), 10 ng/mL recombinant human fibroblast growth factor 10 (hGFG-10; PeproTech, cat. 100-26), 1 ng/mL recombinant human fibroblast growth factor 2 (hFGF-2; PeproTech, cat. 100-18B), and 1 µM prostaglandin E2 (PGE2; Tocris, cat. 2296). The 227483-062-R1-J1-PDC line was cultured in Panc media, containing all 6E components except hFGF-2, with the addition of 500 nM SB-431542 (Selleckchem, cat. S1067) and 10 nM gastrin (Tocris, cat. 3006). […]
# 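Further: spheroids exposed to agents for seven days before readout.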
# 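Wherever viability, T/C is given: percent of DMSO vehicle control wells so 100% = untreated growth.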
IC50,SMILES,"viability, T/C (compound 0.1 µM)","viability, T/C (compound 0.316 µM)","viability, T/C (compound 1 µM)","viability, T/C (compound 3.16 µM)","viability, T/C (compound 10 µM)","viability, T/C (compound 0.0316 µM)"
,CNC(=O)c1ccc(Nc2nc(OC3CCCC3)c3c(-c4ccc5nc(C)oc5c4)c[nH]c3n2)c(OC)c1,87.2% [middle of 12 runs],65.7% [middle of 12 runs],49.8% [middle of 12 runs],44.7% [middle of 12 runs],47.2% [middle of 12 runs],
> 10 µM and 9.92 µM,COc1ccc([C@@H](O)c2cc(-c3ncnc4cc(N5CCOCC5)ccc34)c(F)cc2Cl)nn1,116% and 106%,110% and 95.9%,92.8% and 92.9%,79.5% and 68.8%,50.6% and 50.3%,105% and 109%
0.24 µM and 0.0976 µM,COc1cccc2c1C(=O)c1c(O)c3c(c(O)c1C2=O)CC(O)(C(=O)CO)CC3OC1CC(N)C(O)C(C)O1 (centres undefined),40.6% and 41.4%,38.4% and 37%,44.7% and 30.5%,30.1% and 21.3%,2.57% and 0.82%,87.4% and 66.2%
